Literature values in patent US6635288B2, “Composition for suppressing cellular fibrousing and method for preparing an extract from loquat seeds” (Kochi Medical School, priority 2000, dated 2003).

System: rats
Conditions: Carter et al., Biochem. Pharmacol. 29, 301 (1980)

For `N#C[C@H](O[C@@H]1O[C@H](CO[C@@H]2O[C@H](CO)[C@@H](O)[C@H](O)[C@H]2O)[C@@H](O)[C@H](O)[C@H]1O)c1ccccc1` [amygdalin], the lethal dose is given as 600 mg.
